Laboratory results reported in patent US20260151516A1, “NEW PET TRACER FOR IMAGING OF THE FUNCTIONAL HEPATIC RESERVE” (Medizinische Universität Innsbruck, priority 2022, published 2026).
Where “and” joins values, the source holds several entries; their conditions need not be identical. Equal entries are not always repeated. Where two headings read alike, the source gives them in different places.

Assays:
[1] = test system: human serum; assay: Protein binding in fresh human serum (Sephadex MicroSpin G-50 columns); type: in vitro ADME; conditions: 37° C.
Method: Protein binding was determined for different time points (2 min, 30 min, 60 min, 120 min) in triplicates using Sephadex MicroSpin G-50 columns (GE-Healthcare, Chicago, Illinois, USA). The columns were spun initially at 20,000 rcf for 1 min to remove the storage buffer. Then approx. 5 MBq of radioligand was added to 1 mL of fresh human serum and incubated at 37° C. At each given timepoint 25 μL of the mixture was loaded on to the column, which was then spun at 20,000 rcf for 1 min. The activity content on the column (free radioligand) and in the filtrate (protein bound fraction) was quantified in a γ-counter.

[2] = Ligand stability in PBS (radio-HPLC); type: physicochemical; conditions: 37° C., over the time course of 2 h
Method: (§1) Ligand stability in human blood serum (n=2) and PBS (n=1) was determined for different time points (2 min, 30 min, 60 min, 120 min). Therefore, approx. 5 MBq of radioligand was added to 1 mL of fresh human serum or PBS and incubated at 37° C. At each given time point 100 μL of the mixture were transferred to a 1.5 mL Eppendorf tube containing 100 μL of acetonitrile. The vial was vortexed and centrifuged for 2 min at 14,000 rpm before 100 μL of the supernatant were diluted with 200 μL of water and injected into analytical radio-HPLC. The PBS solution was directly injected into the radio-HPLC. Ligand stability was determined by integrating the areas of the signals in the radio chromatogram in relation to the signal of the intact ligand.

[3] = Biodistribution studies incl. blocking experiments; type: in vivo; conditions: healthy BALB/c mice
Method: For biodistribution studies 6 week old female BALB/c mice (n=3) were injected with 0.1 nmol (100 μL, approx. 1 MBq) of labelled compound via the lateral tail vein and sacrificed after 10, 30, or 60 min by cervical dislocation. The mice were dissected, blood and organs (spleen, pancreas, stomach, intestine, liver, kidney, heart, lung, muscle, and bone) were weighed, and their activity measured in a γ-counter. For blocking experiments, mice were co-injected with 100 μL of a 277 mM Galactose/PBS solution. In case of [^68Ga]Ga-TRAP-GalNAc a 277 mM N-Acetylgalactose solution was used.

[4] = Ligand stability in human blood serum (radio-HPLC); type: in vitro ADME; conditions: for Serum stability (% of intact ligand): 37° C.; for Stability in human blood serum (% intact tracer): over the time course of 2 h
Method: as §1

[5] = Partition coefficient (log D), n-Octanol/PBS; type: physicochemical
Method: The vials were vortexed for 5 min at 1,500 rpm and then centrifuged for 5 min at 20,000 rcf (Eppendorf Centrifuge 5424).

[6] = biological target: T1, Recombinant human ASGR1 (Homo sapiens, UniProt P07306); assay: In vitro binding study, isolated receptor-based assay against ^125I-Asialoorosomucoid; conditions: recombinant human ASGR1, ^125I-Asialoorosomucoid 50 nM, n = 3; method used [^natGa]Ga-NODAGA-TriGalactan
T1 construct: His tag (inferred from immobilisation on Ni-coated plates)
T1 sequence (P07306 1-291): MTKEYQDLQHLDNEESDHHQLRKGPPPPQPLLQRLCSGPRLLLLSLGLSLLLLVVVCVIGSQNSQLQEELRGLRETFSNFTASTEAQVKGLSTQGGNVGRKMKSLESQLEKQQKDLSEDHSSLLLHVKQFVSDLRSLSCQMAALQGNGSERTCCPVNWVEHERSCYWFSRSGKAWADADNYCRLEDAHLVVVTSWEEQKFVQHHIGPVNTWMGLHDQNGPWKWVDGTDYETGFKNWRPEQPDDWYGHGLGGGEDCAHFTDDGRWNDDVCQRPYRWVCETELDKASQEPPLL
Method: Recombinant human ASGR1 was seeded out into Ni-coated 96 well plates (Pierce, Thermo Fisher) in PBS at a concentration of 2 μg/mL for at least 2 h at room temperature under mild agitation (200 1/min). Unbound receptor was removed by washing the wells twice with binding buffer (25 mM Tris×HCl, 150 mM NaCl, 0.05% TWEEN 20, pH=7.4). Next 140 μL of binding buffer as well as 20 μL of a 19 mM CaCl2-solution were added to the wells followed by addition of either 20 μL of PBS (control) or 20 μL of [^natGa]Ga-NODAGA-TriGalactan in PBS. Final ligand concentrations were ranging from 10^−5-10^−11 M. Lastly 20 μL of ^125I-Asialoorosomucoid (50 nM, 2.4 kBq per well) were added and the plate was incubated for 1 hour at room temperature under mild agitation (200 rpm). Supernatants were removed and the wells washed twice with 200 μL of PBS before receptor bound activity was released by addition of 200 μL of hot (60° C.) 1 M NaOH. Wells were incubated with NaOH for 10 min. Lysates were removed and the wells washed again twice with 200 μL of hot NaOH. The activity content in the lysates was quantified in a γ-counter and the values plotted in excel. Fitting of the sigmoidal binding curve and the calculation of the IC50 value was done with Excel's solver plugin.

[7] = 30 min p.i., blocking with 277 mM galactose

O=C(CCP(=O)([O-])CN1CCN(CP(=O)([O-])CCC(=O)NCc2cn(CCOCCOCCO[C@@H]3O[C@H](CO)[C@H](O)[C@H](O)[C@H]3O)nn2)CCN(CP(=O)([O-])CCC(=O)NCc2cn(CCOCCOCCO[C@@H]3O[C@H](CO)[C@H](O)[C@H](O)[C@H]3O)nn2)CC1)NCc1cn(CCOCCOCCO[C@@H]2O[C@H](CO)[C@H](O)[C@H](O)[C@H]2O)nn1.[68Ga+3] [[^68Ga]Ga-TRAP-Galactan]
Protein binding (%) ([1]; 2 min): 8.2±3.4% | Protein binding (%) ([1]; 30 min): 6.4 ± 1.8% | Protein binding (%) ([1]; 60 min): 12.0 ± 3.1% | Protein binding (%) ([1]; 120 min): 11.6±2.2% | Stability in PBS (% intact tracer) [2]: > 99% | Biodistribution Blood ([3]; 10 min p.i.): 3.66 ± 0.2 % ID/g | Biodistribution Femur ([3]; 10 min p.i.): 0.85 ± 0.33 % ID/g | Biodistribution Heart ([3]; 10 min p.i.): 1.28 ± 0.06 % ID/g | Biodistribution Intestine ([3]; 10 min p.i.): 1.24 ± 0.05 % ID/g | Biodistribution Kidneys ([3]; 10 min p.i.): 7.4±2.1 % ID/g and 7.39 ± 2.1 % ID/g | Biodistribution Liver ([3]; 10 min p.i.): 24.6±1.6 % ID/g | Biodistribution Lung ([3]; 10 min p.i.): 2.31 ± 0.17 % ID/g | Biodistribution Muscle ([3]; 10 min p.i.): 0.91 ± 0.08 % ID/g | Biodistribution Pancreas ([3]; 10 min p.i.): 0.87 ± 0.01 % ID/g | Biodistribution Spleen ([3]; 10 min p.i.): 0.84 ± 0.08 % ID/g | Biodistribution Stomach ([3]; 10 min p.i.): 1.22 ± 0.20 % ID/g | Biodistribution Blood ([3]; 30 min p.i.): 1.6 ± 0.11 % ID/g | Biodistribution Femur ([3]; 30 min p.i.): 0.32 ± 0.05 % ID/g | Biodistribution Heart ([3]; 30 min p.i.): 0.65 ± 0.08 % ID/g | Biodistribution Intestine ([3]; 30 min p.i.): 2.18 ± 0.10 % ID/g | Biodistribution Kidneys ([3]; 30 min p.i.): 4.33 ± 0.35 % ID/g | Biodistribution Liver ([3]; 30 min p.i.): 29.7±1.7 % ID/g | Biodistribution Lung ([3]; 30 min p.i.): 1.09 ± 0.03 % ID/g | Biodistribution Muscle ([3]; 30 min p.i.): 0.37 ± 0.02 % ID/g | Biodistribution Pancreas ([3]; 30 min p.i.): 0.53 ± 0.01 % ID/g | Biodistribution Spleen ([3]; 30 min p.i.): 0.42 ± 0.07 % ID/g | Biodistribution Stomach ([3]; 30 min p.i.): 1.00 ± 0.27 % ID/g | Biodistribution Blood [3, 7]: 1.35 ± 0.52 % ID/g | Biodistribution Femur [3, 7]: 0.27 ± 0.09 % ID/g | Biodistribution Heart [3, 7]: 0.44 ± 0.09 % ID/g | Biodistribution Intestine [3, 7]: 1.02 ± 0.18 % ID/g | Biodistribution Kidneys [3, 7]: 3.70 ± 0.53 % ID/g | Biodistribution Liver [3, 7]: 10.6 ± 1.4 % ID/g | Biodistribution Lung [3, 7]: 0.86 ± 0.14 % ID/g | Biodistribution Muscle [3, 7]: 0.30 ± 0.04 % ID/g | Biodistribution Pancreas [3, 7]: 0.37 ± 0.04 % ID/g | Biodistribution Spleen [3, 7]: 0.29 ± 0.03 % ID/g | Biodistribution Stomach [3, 7]: 0.49 ± 0.07 % ID/g | Biodistribution Blood ([3]; 60 min p.i.): 0.3±0.09 % ID/g | Biodistribution Femur ([3]; 60 min p.i.): 0.13 ± 0.03 % ID/g | Biodistribution Heart ([3]; 60 min p.i.): 0.16 ± 0.02 % ID/g | Biodistribution Intestine ([3]; 60 min p.i.): 2.8±0.2 % ID/g and 2.80 ± 0.24 % ID/g | Biodistribution Kidneys ([3]; 60 min p.i.): 1.72 ± 0.17 % ID/g | Biodistribution Liver ([3]; 60 min p.i.): 25.0 ± 1.1 % ID/g | Biodistribution Lung ([3]; 60 min p.i.): 0.32 ± 0.05 % ID/g | Biodistribution Muscle ([3]; 60 min p.i.): 0.15 ± 0.03 % ID/g | Biodistribution Pancreas ([3]; 60 min p.i.): 0.16 ± 0.02 % ID/g | Biodistribution Spleen ([3]; 60 min p.i.): 0.17 ± 0.07 % ID/g | Biodistribution Stomach ([3]; 60 min p.i.): 0.31 ± 0.21 % ID/g | Serum stability (% of intact ligand) ([4]; 2 min): 97.7 ± 0.3% | Serum stability (% of intact ligand) ([4]; 30 min): 97.6 ± 0.2% | Serum stability (% of intact ligand) ([4]; 60 min): 97.6 ± 0.1% | Serum stability (% of intact ligand) ([4]; 120 min): 97.9 ± 0.1% | Stability in human blood serum (% intact tracer) [4]: > 98% | logD [5]: −4.26±0.08

O=C(O)CN1CCN(CC(=O)O)CCN([C@H](CCC(=O)NCCCC(=O)NC(COCc2cn(CCOCCOCCO[C@@H]3O[C@H](CO)[C@H](O)[C@H](O)[C@H]3O)nn2)(COCc2cn(CCOCCOCCO[C@@H]3O[C@H](CO)[C@H](O)[C@H](O)[C@H]3O)nn2)COCc2cn(CCOCCOCCO[C@@H]3O[C@H](CO)[C@H](O)[C@H](O)[C@H]3O)nn2)C(=O)O)CC1 [[^68Ga]Ga-NODAGA-TriGalactan, metal not drawn]
Protein binding (%) ([1]; 2 min): 7.6±3.9% | Protein binding (%) ([1]; 30 min): 5.5% | Protein binding (%) ([1]; 60 min): 9.2% | Protein binding (%) ([1]; 120 min): 13.6±3.2% | Stability in PBS (% intact tracer) [2]: > 99% | Biodistribution Blood ([3]; 10 min p.i.): 3.3 ± 0.2 % ID/g | Biodistribution Femur ([3]; 10 min p.i.): 0.87 ± 0.52 % ID/g | Biodistribution Intestine ([3]; 10 min p.i.): 1.13 ± 0.07 % ID/g | Biodistribution Kidneys ([3]; 10 min p.i.): 8.2±0.5 % ID/g and 8.15 ± 0.54 % ID/g | Biodistribution Liver ([3]; 10 min p.i.): 33.4±0.9 % ID/g and 33.4 ± 0.88 % ID/g | Biodistribution Lung ([3]; 10 min p.i.): 2.14 ± 0.13 % ID/g | Biodistribution Muscle ([3]; 10 min p.i.): 0.77 ± 0.02 % ID/g | Biodistribution Pancreas ([3]; 10 min p.i.): 0.87 ± 0.12 % ID/g | Biodistribution Spleen ([3]; 10 min p.i.): 0.78 ± 0.05 % ID/g | Biodistribution Blood ([3]; 30 min p.i.): 0.89 ± 0.09 % ID/g | Biodistribution Femur ([3]; 30 min p.i.): 0.22 ± 0.02 % ID/g | Biodistribution Heart ([3]; 30 min p.i.): 0.40 ± 0.03 % ID/g | Biodistribution Intestine ([3]; 30 min p.i.): 1.95 ± 0.17 % ID/g | Biodistribution Kidneys ([3]; 30 min p.i.): 2.83 ± 0.18 % ID/g | Biodistribution Liver ([3]; 30 min p.i.): 32.2±3.7 % ID/g | Biodistribution Lung ([3]; 30 min p.i.): 0.74 ± 0.03 % ID/g | Biodistribution Muscle ([3]; 30 min p.i.): 0.23 ± 0.03 % ID/g | Biodistribution Pancreas ([3]; 30 min p.i.): 0.31 ± 0.05 % ID/g | Biodistribution Spleen ([3]; 30 min p.i.): 0.27 ± 0.02 % ID/g | Biodistribution Stomach ([3]; 30 min p.i.): 1.05 ± 0.08 % ID/g | Biodistribution Blood [3, 7]: 1.19 ± 0.33 % ID/g | Biodistribution Femur [3, 7]: 0.37 ± 0.16 % ID/g | Biodistribution Heart [3, 7]: 0.44 ± 0.03 % ID/g | Biodistribution Intestine [3, 7]: 0.77 ± 0.19 % ID/g | Biodistribution Kidneys [3, 7]: 4.19 ± 0.29 % ID/g | Biodistribution Liver [3, 7]: 13.9±1.0 % ID/g and 14.6 ± 0.15 % ID/g | Biodistribution Lung [3, 7]: 0.97 ± 0.04 % ID/g | Biodistribution Muscle [3, 7]: 0.43 ± 0.20 % ID/g | Biodistribution Pancreas [3, 7]: 0.45 ± 0.01 % ID/g | Biodistribution Spleen [3, 7]: 0.32 ± 0.03 % ID/g | Biodistribution Stomach [3, 7]: 0.68 ± 0.11 % ID/g | Biodistribution Blood ([3]; 60 min p.i.): 0.3±0.04 % ID/g and 0.34 ± 0.04 % ID/g | Biodistribution Femur ([3]; 60 min p.i.): 0.26 ± 0.19 % ID/g | Biodistribution Heart ([3]; 60 min p.i.): 0.17 ± 0.00 % ID/g | Biodistribution Intestine ([3]; 60 min p.i.): 3.0±0.4 % ID/g and 2.99 ± 0.43 % ID/g | Biodistribution Kidneys ([3]; 60 min p.i.): 1.51 ± 0.10 % ID/g | Biodistribution Liver ([3]; 60 min p.i.): 27.7±3.1 % ID/g and 27.7 ± 3.12 % ID/g | Biodistribution Lung ([3]; 60 min p.i.): 0.38 ± 0.10 % ID/g | Biodistribution Muscle ([3]; 60 min p.i.): 0.17 ± 0.02 % ID/g | Biodistribution Pancreas ([3]; 60 min p.i.): 0.19 ± 0.09 % ID/g | Biodistribution Spleen ([3]; 60 min p.i.): 0.16 ± 0.02 % ID/g | Biodistribution Stomach ([3]; 60 min p.i.): 0.92 ± 0.04 % ID/g | Serum stability (% of intact ligand) ([4]; 2 min): 99.8% | Serum stability (% of intact ligand) ([4]; 30 min): 97.6% | Serum stability (% of intact ligand) ([4]; 60 min): 98.5% | Serum stability (% of intact ligand) ([4]; 120 min): 92.9% | Stability in human blood serum (% intact tracer) [4]: > 93% | logD ([5]; read-out: logD): -4.33 ± 0.09 | IC50 [6]: 1.7 nM
